Results published in ChEMBL document CHEMBL5291721, “A preclinical secondary pharmacology resource illuminates target-adverse drug reaction associations of marketed drugs” (Nat Commun, 2023).

How the values were obtained:
Mu-type opioid receptor = Mu-type opioid receptor (Homo sapiens, UniProt P35372); test: biochemical; format: functional
[1] = target: T1, Alpha-2B adrenergic receptor (Homo sapiens, UniProt P18089)
T1 sequence (P18089 whole entry): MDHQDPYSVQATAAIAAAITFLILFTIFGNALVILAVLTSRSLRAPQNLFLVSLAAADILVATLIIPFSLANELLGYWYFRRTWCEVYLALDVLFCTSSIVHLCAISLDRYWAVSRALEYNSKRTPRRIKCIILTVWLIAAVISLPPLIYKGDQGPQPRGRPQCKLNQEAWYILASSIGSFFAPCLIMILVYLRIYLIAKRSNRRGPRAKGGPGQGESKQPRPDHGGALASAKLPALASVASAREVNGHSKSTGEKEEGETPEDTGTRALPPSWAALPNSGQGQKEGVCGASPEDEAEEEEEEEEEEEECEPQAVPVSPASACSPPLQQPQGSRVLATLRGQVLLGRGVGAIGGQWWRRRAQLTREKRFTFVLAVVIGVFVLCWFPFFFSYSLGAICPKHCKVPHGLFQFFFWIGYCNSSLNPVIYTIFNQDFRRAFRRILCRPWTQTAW

Cannabinoid receptor 1 [2] = target: T2, Cannabinoid receptor 1 (Homo sapiens, UniProt P21554); format: functional, cell-based
T2 sequence (P21554 whole entry): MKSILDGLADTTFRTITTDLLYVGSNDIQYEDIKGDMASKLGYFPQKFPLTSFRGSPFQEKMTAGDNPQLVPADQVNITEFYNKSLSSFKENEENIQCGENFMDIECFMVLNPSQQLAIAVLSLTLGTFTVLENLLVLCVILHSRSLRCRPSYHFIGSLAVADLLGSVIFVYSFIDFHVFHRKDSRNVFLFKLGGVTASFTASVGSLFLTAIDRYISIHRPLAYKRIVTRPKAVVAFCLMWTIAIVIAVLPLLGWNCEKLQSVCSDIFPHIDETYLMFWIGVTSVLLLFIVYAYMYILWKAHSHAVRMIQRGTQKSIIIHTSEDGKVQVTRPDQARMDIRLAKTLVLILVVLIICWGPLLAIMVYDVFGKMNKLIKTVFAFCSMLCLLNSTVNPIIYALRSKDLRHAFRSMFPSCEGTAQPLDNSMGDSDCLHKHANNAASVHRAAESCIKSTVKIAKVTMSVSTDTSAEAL

Cannabinoid receptor 1 [3] = target: T2, Cannabinoid receptor 1; format: functional, cell-based; remark: listed apart in the source
[4] = target: T3, Muscarinic acetylcholine receptor M1 (Homo sapiens, UniProt P11229); format: functional
T3 sequence (P11229 whole entry): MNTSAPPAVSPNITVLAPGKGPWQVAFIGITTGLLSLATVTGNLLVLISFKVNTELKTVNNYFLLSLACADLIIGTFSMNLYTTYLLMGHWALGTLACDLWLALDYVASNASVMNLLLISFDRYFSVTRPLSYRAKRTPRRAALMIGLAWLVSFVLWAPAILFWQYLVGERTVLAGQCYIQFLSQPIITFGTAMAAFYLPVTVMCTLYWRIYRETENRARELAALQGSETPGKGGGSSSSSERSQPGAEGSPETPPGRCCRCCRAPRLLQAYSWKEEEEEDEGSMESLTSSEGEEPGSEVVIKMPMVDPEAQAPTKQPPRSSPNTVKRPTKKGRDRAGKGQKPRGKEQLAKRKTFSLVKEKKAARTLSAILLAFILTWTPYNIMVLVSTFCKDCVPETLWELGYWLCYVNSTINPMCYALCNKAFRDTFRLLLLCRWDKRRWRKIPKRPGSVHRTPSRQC

[5] = target: 5-hydroxytryptamine receptor 2A (Homo sapiens, UniProt P28223); format: functional, cell-based
Sequence of 5-hydroxytryptamine receptor 2A (P28223 whole entry): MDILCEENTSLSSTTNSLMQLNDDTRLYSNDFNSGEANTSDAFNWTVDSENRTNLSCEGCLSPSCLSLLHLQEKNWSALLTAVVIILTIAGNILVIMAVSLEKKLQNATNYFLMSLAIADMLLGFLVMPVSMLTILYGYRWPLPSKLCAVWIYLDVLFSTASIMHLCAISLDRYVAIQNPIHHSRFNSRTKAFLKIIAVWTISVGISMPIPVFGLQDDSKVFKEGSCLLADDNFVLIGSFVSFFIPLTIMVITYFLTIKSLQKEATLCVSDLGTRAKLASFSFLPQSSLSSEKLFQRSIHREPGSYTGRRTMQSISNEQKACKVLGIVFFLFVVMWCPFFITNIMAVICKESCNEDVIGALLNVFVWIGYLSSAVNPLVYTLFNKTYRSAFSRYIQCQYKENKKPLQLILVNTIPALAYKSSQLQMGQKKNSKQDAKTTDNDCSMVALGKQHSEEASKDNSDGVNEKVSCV

Histamine H1 receptor = Histamine H1 receptor (Homo sapiens, UniProt P35367)
Sequence of Histamine H1 receptor (P35367 whole entry): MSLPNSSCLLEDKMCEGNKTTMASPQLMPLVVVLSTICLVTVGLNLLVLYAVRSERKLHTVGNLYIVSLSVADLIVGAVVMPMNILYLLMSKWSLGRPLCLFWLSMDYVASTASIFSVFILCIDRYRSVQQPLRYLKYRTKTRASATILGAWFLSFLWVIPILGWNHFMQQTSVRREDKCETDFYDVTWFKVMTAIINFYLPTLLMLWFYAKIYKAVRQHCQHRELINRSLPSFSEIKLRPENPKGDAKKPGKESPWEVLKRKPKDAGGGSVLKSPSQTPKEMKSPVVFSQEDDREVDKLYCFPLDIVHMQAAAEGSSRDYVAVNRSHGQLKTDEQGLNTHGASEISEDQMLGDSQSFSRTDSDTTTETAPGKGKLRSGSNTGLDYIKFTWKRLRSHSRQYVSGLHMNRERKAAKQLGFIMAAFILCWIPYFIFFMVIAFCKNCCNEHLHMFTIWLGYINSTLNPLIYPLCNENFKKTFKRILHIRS

[6] = target: T4, Alpha-1A adrenergic receptor (Homo sapiens, UniProt P35348); format: functional, cell-based
T4 sequence (P35348 whole entry): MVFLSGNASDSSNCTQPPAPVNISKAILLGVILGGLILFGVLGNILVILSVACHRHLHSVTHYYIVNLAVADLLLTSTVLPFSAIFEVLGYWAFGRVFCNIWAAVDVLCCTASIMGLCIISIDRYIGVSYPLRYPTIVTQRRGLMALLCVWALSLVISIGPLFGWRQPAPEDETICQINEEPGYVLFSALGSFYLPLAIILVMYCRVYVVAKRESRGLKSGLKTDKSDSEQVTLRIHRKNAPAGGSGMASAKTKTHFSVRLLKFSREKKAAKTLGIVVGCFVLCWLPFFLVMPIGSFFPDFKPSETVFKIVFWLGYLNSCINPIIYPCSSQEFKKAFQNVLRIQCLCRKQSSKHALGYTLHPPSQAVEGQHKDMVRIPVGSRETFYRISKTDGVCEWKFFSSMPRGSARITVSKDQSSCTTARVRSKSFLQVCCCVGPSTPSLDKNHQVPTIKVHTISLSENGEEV

Estrogen receptor = target: T5, Estrogen receptor (Homo sapiens, UniProt P03372)
T5 sequence (P03372 whole entry): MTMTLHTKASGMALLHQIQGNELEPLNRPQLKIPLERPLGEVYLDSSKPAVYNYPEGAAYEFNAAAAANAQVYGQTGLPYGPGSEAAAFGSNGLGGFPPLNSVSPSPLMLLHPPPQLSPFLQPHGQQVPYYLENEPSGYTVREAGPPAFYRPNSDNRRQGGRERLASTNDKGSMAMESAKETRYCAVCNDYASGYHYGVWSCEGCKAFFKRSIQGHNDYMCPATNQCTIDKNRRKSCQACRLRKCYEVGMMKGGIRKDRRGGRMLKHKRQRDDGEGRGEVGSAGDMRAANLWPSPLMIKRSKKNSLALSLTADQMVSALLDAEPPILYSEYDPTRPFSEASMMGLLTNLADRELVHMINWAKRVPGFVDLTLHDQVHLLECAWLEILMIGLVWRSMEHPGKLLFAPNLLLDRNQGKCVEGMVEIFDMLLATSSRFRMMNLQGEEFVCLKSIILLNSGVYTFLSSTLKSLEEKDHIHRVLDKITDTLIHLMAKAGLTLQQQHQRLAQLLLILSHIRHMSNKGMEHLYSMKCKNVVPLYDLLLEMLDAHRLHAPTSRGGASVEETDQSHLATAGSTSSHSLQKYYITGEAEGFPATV

[7] = target: T6, 5-hydroxytryptamine receptor 1A (Homo sapiens, UniProt P08908); format: functional, cell-based
T6 sequence (P08908 whole entry): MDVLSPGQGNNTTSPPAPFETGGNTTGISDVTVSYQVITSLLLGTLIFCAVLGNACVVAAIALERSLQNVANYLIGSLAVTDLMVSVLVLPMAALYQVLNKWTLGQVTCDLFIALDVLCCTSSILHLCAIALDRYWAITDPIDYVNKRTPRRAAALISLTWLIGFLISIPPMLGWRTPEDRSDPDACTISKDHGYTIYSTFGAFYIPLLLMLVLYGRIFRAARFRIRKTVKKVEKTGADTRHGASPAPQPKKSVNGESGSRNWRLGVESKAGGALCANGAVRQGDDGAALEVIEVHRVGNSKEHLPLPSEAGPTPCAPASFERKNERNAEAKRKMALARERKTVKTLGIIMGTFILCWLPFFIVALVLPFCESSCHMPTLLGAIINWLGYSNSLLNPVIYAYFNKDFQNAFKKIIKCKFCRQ

[8] = target: T4, Alpha-1A adrenergic receptor
[9] = target: Beta-2 adrenergic receptor (Homo sapiens, UniProt P07550); format: functional, cell-based
Sequence of Beta-2 adrenergic receptor (P07550 whole entry): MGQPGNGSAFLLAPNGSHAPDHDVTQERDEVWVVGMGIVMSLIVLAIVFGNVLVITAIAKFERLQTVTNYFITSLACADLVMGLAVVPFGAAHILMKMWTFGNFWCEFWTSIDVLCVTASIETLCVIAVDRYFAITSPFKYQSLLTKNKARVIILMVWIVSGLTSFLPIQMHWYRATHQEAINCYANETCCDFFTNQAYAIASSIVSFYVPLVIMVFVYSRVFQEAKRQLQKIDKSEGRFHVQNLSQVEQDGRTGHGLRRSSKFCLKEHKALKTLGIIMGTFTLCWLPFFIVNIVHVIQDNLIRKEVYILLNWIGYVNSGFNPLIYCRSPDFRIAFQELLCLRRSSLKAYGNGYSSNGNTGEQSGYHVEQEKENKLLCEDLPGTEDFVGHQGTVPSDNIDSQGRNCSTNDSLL

Cannabinoid receptor 1 [10] = target: T2, Cannabinoid receptor 1
Also: assay procedure not described here.

Sequence of Mu-type opioid receptor (P35372 whole entry): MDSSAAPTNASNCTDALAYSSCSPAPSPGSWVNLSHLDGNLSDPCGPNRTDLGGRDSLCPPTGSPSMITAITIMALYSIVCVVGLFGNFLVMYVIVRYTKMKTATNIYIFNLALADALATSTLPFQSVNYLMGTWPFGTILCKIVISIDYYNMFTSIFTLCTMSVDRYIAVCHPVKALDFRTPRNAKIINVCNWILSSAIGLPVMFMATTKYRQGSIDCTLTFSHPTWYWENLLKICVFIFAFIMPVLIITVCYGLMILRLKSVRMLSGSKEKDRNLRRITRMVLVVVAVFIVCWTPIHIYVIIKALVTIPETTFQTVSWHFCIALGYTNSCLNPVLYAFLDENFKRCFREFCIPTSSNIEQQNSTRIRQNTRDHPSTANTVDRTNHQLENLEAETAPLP

AC50 (Mu-type opioid receptor) | AC50 [1] | AC50 (Cannabinoid receptor 1 [2]) | AC50 (Cannabinoid receptor 1 [3]) | AC50 [4] | AC50 [5] | AC50 (Histamine H1 receptor) | AC50 [6] | AC50 (Estrogen receptor) | AC50 [7] | AC50 [8] | AC50 [9] | AC50 (Cannabinoid receptor 1 [10]) | Structure (SMILES)
> 30 µM | > 30 µM | > 30 µM | > 30 µM | > 30 µM | > 30 µM | > 30 µM | > 30 µM | > 10 µM | > 30 µM |  |  |  | CC/C=C\C/C=C\C/C=C\C/C=C\C/C=C\CCCC(=O)OCC [ICOSAPENT ETHYL]
 | > 10 µM | > 30 µM | > 30 µM | > 10 µM |  | 8.5 µM | > 30 µM | > 30 µM | > 10 µM | 9.66 µM | > 30 µM | > 10 µM | CCCCOc1ccc(C(=O)CCN2CCCCC2)cc1 [DYCLONINE]
> 30 µM | > 30 µM | > 30 µM | > 30 µM | > 30 µM | > 30 µM | > 30 µM | 19 µM | > 30 µM |  |  |  |  | OC[C@H]1O[C@@H](Oc2cc(O)cc(/C=C/c3ccc(O)cc3)c2)[C@H](O)[C@@H](O)[C@@H]1O [PICEID]
 | > 10 µM | > 30 µM | > 30 µM | > 10 µM |  | > 10 µM | > 30 µM | > 30 µM | > 10 µM | > 10 µM | > 30 µM | > 10 µM | CC(CN(C)C)C(C)(O)Cc1ccc(Cl)cc1 (configuration not stated) [CLOBUTINOL]
> 30 µM | > 30 µM | > 30 µM | > 30 µM | > 30 µM | > 30 µM | > 30 µM | > 30 µM | > 30 µM |  |  |  |  | CCC(NC(C)C)C(O)c1ccc(O)c2[nH]c(=O)ccc12 (configuration not stated) [PROCATEROL]
> 30 µM | > 30 µM | > 30 µM | > 30 µM | > 30 µM | > 30 µM | > 30 µM | > 30 µM | > 30 µM | > 30 µM |  |  |  | Cn1c(=O)c2c(ncn2CCOC(=O)C(C)(C)Oc2ccc(Cl)cc2)n(C)c1=O [THEOFIBRATE]
> 30 µM | > 30 µM |  |  | > 30 µM | > 30 µM | > 30 µM | > 30 µM | > 30 µM | > 30 µM |  |  | > 30 µM | C=CC[N+]1([C@H]2C[C@H]3[C@@H]4CC[C@H]5C[C@H](O)[C@@H](N6CCOCC6)C[C@]5(C)[C@H]4CC[C@]3(C)[C@H]2OC(C)=O)CCCC1 [ROCURONIUM]
 | > 10 µM | > 30 µM | > 30 µM | > 10 µM | > 10 µM | > 10 µM | > 30 µM |  | > 10 µM | > 10 µM |  |  | CC(=O)[C@H]1CC[C@H]2[C@@H]3C[C@H](C)C4=CC(=O)CC[C@]4(C)[C@H]3[C@@H](O)C[C@]12C [MEDRYSONE]

Structure (SMILES) | AC50 (Mu-type opioid receptor) | AC50 [1] | AC50 (Cannabinoid receptor 1 [2]) | AC50 (Cannabinoid receptor 1 [3]) | AC50 [4] | AC50 [5] | AC50 (Histamine H1 receptor) | AC50 [6] | AC50 (Estrogen receptor) | AC50 [7] | AC50 [8] | AC50 [9] | AC50 (Cannabinoid receptor 1 [10])
CC(C)(C)NCC(O)c1ccccc1Cl (configuration not stated) [TULOBUTEROL] | > 30 µM | > 30 µM | > 30 µM | > 30 µM | > 30 µM | > 30 µM |  | > 30 µM | > 30 µM | > 30 µM |  |  | 
